Results reported in US20080003184A1, “Superparamagnetic Gadolinium Oxide Nanoscale Particles and Compositions Comprising Such Particles” (priority 2004, published 2008).
Where two headings read alike, the source gives them in different places.

What was measured:
[1] = Relaxation time measurements (T1, T2 relaxivity) in H2O, 1.5 T scanner; assay type: physicochemical; settings: 22-23° C.
Method: (§1) Samples of Gd2O3-DEG from Example 1 (with an average particle size of about 5 nm and a particle size range from about 1 to 15 nm) and Gd-DTPA (Magnevist®) were prepared in 10 mm NMR test tubes with H2O at 9 different Gd concentrations from […]. At measurement the test tubes were immersed in a bowl with saline at 22-23° C., which was the temperature of the scanner room.
(§2) T1 and T2 relaxation times were measured with a 1.5 T Philips Achieva whole body scanner using the head coil. A 2D mixed multi-echo SE interleaved with multi-echo IR sequence was used for the measurements [kleef_mrm—1987]. Imaging time parameters were varied to minimise the standard deviations in relaxation time calculations: TE=30 ms, TR (SE)=500 ms, TI=150 ms, and TR (IR)=1150 ms (set 1); TE=50 ms, TR (SE)=760 ms, TI=370 ms, and TR (IR)=2290 ms (set 2). Other MR parameters were: FOV=23 cm, slice thickness=7 mm, number of echoes=4.
In addition, samples of Gd2O3-DEG and Resovist® were prepared and tested under the same conditions as above. There were 6 different Gd and Fe concentrations between 0.1 and 1.5 mM. Resovist® is based on ferrocarbotran colloidal sol of superparamagnetic iron oxide nanoparticles (SPIO). The particles have a hydrodynamic diameter of 60 nm on an iron core of 4 nm. […] Accordingly, Gd2O3-DEG particles enable a contrast agent with complementary properties to those based on SPIO.

[2] = Signal intensity from first echo of spin echo sequence (TE=30 ms, TR=500 ms); assay type: physicochemical
Method: as §1, §2
At higher concentrations (>0.9 mM) the strong T2 effect attenuated the signal for the nanoparticle samples. That is, the Gd2O3 sample reached the signal intensity peak at lower concentrations (0.6 mM) compared to the Gd-DTPA signal intensity that peaked at approximately 1.2 mM in this sequence.
In addition, samples of Gd2O3-DEG and Resovist® were prepared and tested under the same conditions as above. There were 6 different Gd and Fe concentrations between 0.1 and 1.5 mM. […]

[3] = Magnevist 0.1 mmol/kg, cited from earlier work
[4] = system: THP-1 cells; test: Monocyte studies: incubation, washing, T1/T2 measurement; assay type: cell-based; settings: 0.1-0.9 mM Gd, 2 h or 8 h at 37° C., washed twice
Method: For monocyte experiments, THP-1 cells were cultured in RPMI 1640 medium with 10% fetal calf serum (GIBCO, Invitrogen, Carlsbad, Calif., USA) with additions of L-glutamate and penicillin/streptomycin solution (Invitrogen). Cells were counted and found 97% viable. Cells were treated with Gd2O3-DEG or Gd-DTPA in concentrations 0.1, 0.3, 0.6, and 0.9 mM. Cells of one well were left untreated. A control series was prepared of cell culture medium only with the different concentrations of Gd2O3-DEG particles. Two plates of 24 wells each were prepared as described above; one was incubated with the Gd2O3-DEG and Gd-DTPA for 2 h and the other one for 8 h at 37° C. After incubation cells were transferred to Falcon tubes and washed twice with medium and centrifugated for 8 minutes at 1100 rpm.

## O=C([O-])CN(CCN(CC(=O)[O-])CC(=O)O)CCN(CC(=O)[O-])CC(=O)O.[Gd+3] [Gd-DTPA]
[1]
  r1 relaxivity constant: 4.86 ± 0.08 mM⁻¹ s⁻¹
  r2 relaxivity constant: 5.53 ± 0.14 mM⁻¹ s⁻¹
[2]
  Gd concentration at signal intensity peak: approximately 1.2 mM
[3]; 3 minutes after injection
  detected plasma concentration of Gd: 0.6 mM
[3]; 60 minutes after injection
  detected plasma concentration of Gd: 0.24 mM
[4]
  Presence with cells after the washing procedure: not present in the cell suspension after the washing
